Data: PubChem BioAssay (NCI)
Values joined by “and” are separate entries in the source; they are usually repeats but may differ in a detail not shown here. Equal values may be shown once.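 Compound exposure: 48 hours, 5 concentrations, 96-well plates. GI50 marks 50% less growth. TGI: total growth inhibition.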

Assays:
Assay in all cases: DTP human tumour cell line panel, 48 h
[1] = tested on: OVCAR-3 ovarian
[2] = tested on: SF-295 CNS
[3] = tested on: EKVX NSCLC
[4] = tested on: HCT-15 colon
[5] = tested on: NCI-H460 lung
[6] = tested on: SN12C renal
[7] = tested on: BT-549 breast
[8] = tested on: K-562 leukemia
[9] = tested on: UO-31 renal
[10] = tested on: U251 CNS

SMILES	GI50 [1]	TGI [1]	GI50 [2]	TGI [2]	GI50 [3]	TGI [3]	GI50 [4]	TGI [4]	GI50 [5]	TGI [5]	GI50 [6]	TGI [6]	GI50 [7]	TGI [7]	GI50 [8]	TGI [8] [µM]	GI50 [9]	TGI [9]	GI50 [10]	TGI [10]
O=C(Nc1nc2c(C(F)(F)F)cccc2s1)c1cc(Cl)ccc1O	0.375 µM	74.7 µM	0.232 µM	0.707 µM	0.25 µM	5.75 µM	0.338 µM	13.2 µM	0.32 µM	10.8 µM	0.289 µM	1.53 µM	0.305 µM	1.79 µM	0.327 µM	> 100	0.265 µM	11.7 µM	0.312 µM	42.6 µM
COc1cc(OC)c(/C=C/C(=O)c2c(OC)cc(OC)cc2OC)c(OC)c1	0.233 µM	0.8 µM	0.75 µM	> 21 µM	3.61 µM	> 100 µM	0.458 µM	33.4 µM	0.976 µM	7.74 µM	1.81 µM	> 74.4 µM	0.931 µM	> 24.5 µM	0.394 µM	> 100	2.23 µM	> 100 µM	1.11 µM	9.43 µM
CCC(=O)NC1=C(Cl)C(=O)C(NC(=O)CC)=C(Cl)C1=O	5.14 µM	9.56 µM	> 39.2 µM	> 53.8 µM	18.1 µM	33.1 µM	9.02 µM	27.1 µM	> 45.7 µM	> 63.3 µM	17.7 µM	31.9 µM	16 µM	29.7 µM	11.8 µM	> 27.9	5.97 µM	11.4 µM	> 41.9 µM	> 56 µM
CC(NNC(=S)N1CCN(c2ccccn2)CC1)c1nccc2ccccc12 (stereo not given)	–	13.2 µM	–	11.9 µM	–	11.4 µM	–	17.3 µM	–	11.3 µM	–	11.3 µM	–	22.6 µM	–	14.2	–	8.34 µM	–	14.3 µM
CN1CCN(Cc2ccc(NC(=O)c3cncc(C#Cc4ccc(N)nc4)c3)cc2C(F)(F)F)CC1	1.72 µM	7.88 µM	1.23 µM	4.79 µM	1.16 µM	6.08 µM	1.12 µM	5.96 µM	0.988 µM	5.86 µM	1.11 µM	5.17 µM	1.62 µM	6.43 µM	0.005 µM	5.54	0.716 µM	2.93 µM	0.924 µM	6.6 µM
COc1cc2ncnc(Oc3ccc(NC(=O)Nc4ccc(CN5CCOCC5)c(C(F)(F)F)c4)c4ccccc34)c2cc1OC	1.17 µM	6.15 µM	1.36 µM	5.54 µM	0.463 µM	5.91 µM	1.04 µM	4.7 µM	1.37 µM	3.64 µM	0.292 µM	1.71 µM	1.11 µM	5.28 µM	–	1.5	0.189 µM	2.98 µM	1.05 µM	4.01 µM
CCC(=O)OCOc1ccc(/C=C2\CCC(CN(C)C)C2=O)cc1 (stereo not given)	–	8.29 µM	–	20.5 µM	–	37.9 µM	–	9.97 µM	–	32.7 µM	–	7.56 µM	–	13.6 µM	–	4.66	–	19 µM	–	26.2 µM
CC1=CC(C)=N/C(=N/S(=O)(=O)c2cc(C)c(Cl)cc2SCc2ccccc2)NN1	> 100 µM	> 100 µM	> 100 µM	> 100 µM	98.6 µM	> 100 µM	> 100 µM	> 100 µM	> 100 µM	> 100 µM	> 100 µM	> 100 µM	> 100 µM	> 100 µM	> 100 µM	> 100	> 100 µM	> 100 µM	82.3 µM	> 100 µM
COC(=O)C1=C(C)NC(=S)NC1c1ccc(N(CCCl)CCCl)cc1Cl (stereo not given)	–	> 94 µM	–	> 82.4 µM	–	> 37.8 µM	–	> 66.5 µM	–	> 100 µM	–	> 100 µM	73.5 µM	> 100 µM	–	> 57.5	–	> 80.7 µM	–	> 100 µM
CC1=C(CCC(C)CO)O[C@H]2C[C@H]3[C@@H]4CC[C@H]5C[C@@H](O)CC[C@]5(C)[C@H]4CC(=O)[C@]3(C)[C@@H]12 (stereo not given in full)	–	> 60.9 µM	–	> 49.9 µM	–	> 90.2 µM	–	57.6 µM	–	21.8 µM	–	53.2 µM	–	58.4 µM	–	40.7	–	33.3 µM	–	37.8 µM
Nc1ccc(C#Cc2ccccc2C#CCCCCO)cc1	23 µM	47.2 µM	22.3 µM	41.1 µM	18.9 µM	37.8 µM	15.3 µM	28.7 µM	21.8 µM	45.4 µM	6.26 µM	20 µM	16.3 µM	34.8 µM	19.7 µM	40.8	16.6 µM	30.5 µM	11.1 µM	23.1 µM
CN(C(=O)C(C)(C)C)c1ccccc1I(=O)=O	> 100 µM	> 100 µM	> 100 µM	> 100 µM	> 100 µM	> 100 µM	84.3 µM	> 100 µM	> 100 µM	> 100 µM	> 100 µM	> 100 µM	> 100 µM	> 100 µM	14.1 µM	35.5	> 100 µM	> 100 µM	89.1 µM	> 100 µM
CCN1CCN(C(=O)[C@]23CC[C@@H](C)[C@H](C)[C@@H]2C2=CC[C@@H]4[C@@]5(C)CCC(=O)C(C)(C)[C@@H]5CC[C@@]4(C)[C@]2(C)CC3)CC1	1.1 µM	2.44 µM	0.82 µM	1.59 µM	0.916 µM	2.42 µM	0.977 µM	2.39 µM	0.93 µM	1.75 µM	0.776 µM	1.48 µM	0.833 µM	1.58 µM	0.994 µM	2.9	0.726 µM	1.42 µM	0.854 µM	1.85 µM
Cc1ccsc1C(NC(=O)c1ccccc1)c1cc(Cl)c2cccnc2c1O (stereo not given)	0.354 µM	12.1 µM	0.333 µM	12.2 µM	0.371 µM	10.9 µM	0.266 µM	16.6 µM	0.341 µM	2.03 µM	0.971 µM	14.7 µM	2.04 µM	21.3 µM	0.381 µM	> 100	0.334 µM	2.51 µM	0.318 µM	10.4 µM
CC(C)[C@@H](C(=O)O[C@@H]1/C=C/C(=O)O[C@@H](C)CCC/C=C/[C@@H]2C[C@H](O)C[C@H]21)N(C)C	6.34 µM	26.7 µM	6 µM	24.9 µM	12.5 µM	64.9 µM	16 µM	32.3 µM	24.7 µM	> 76.3 µM	28.4 µM	> 62.1 µM	9.41 µM	32 µM	20.3 µM	50.7	23.1 µM	> 100 µM	30.2 µM	> 100 µM
CC1=CC2(C)/C=C(C)/C=C\CC(O)/C=C3/C=CC(=C4C(=O)OC2(CC1C)C4=O)OC3 (stereo not given)	1.18 µM	2.5 µM	8.31 µM	32 µM	3.09 µM	> 31.7 µM	1.47 µM	3.69 µM	3.84 µM	15.7 µM	1.92 µM	5.01 µM	2.11 µM	4.79 µM	1.2 µM	> 100	1.46 µM	3.06 µM	1.64 µM	3.58 µM
Clc1ccc2c(NC3CCC(N4CCCCC4)CC3)ccnc2c1 (stereo not given)	–	59.2 µM	–	36.8 µM	–	> 100 µM	–	> 100 µM	–	33.2 µM	–	> 100 µM	–	42.8 µM	–	62.1	–	28 µM	–	57.1 µM
C=CCc1c(O)c(C(=O)/C=C/c2ccc(Cl)cc2)c(OC)c2ccoc12	1.97 µM	4.41 µM	2.77 µM	9.56 µM	7.23 µM	21.5 µM	3.4 µM	12.9 µM	3.2 µM	12.1 µM	4.96 µM	16.9 µM	3 µM	11 µM	3.25 µM	> 100	2.88 µM	13.3 µM	2.3 µM	5.87 µM
C[C@]12CC[C@H]3[C@@H](CC[C@]4(O)C[C@@H](O)CC[C@]34C=O)[C@@]1(O)CC[C@@H]2C1=CC(=O)OC1	–	1.55 µM	–	1.74 µM	–	1.3 µM	–	1.47 µM	–	0.591 µM	–	1.8 µM	–	1.08 µM	–	> 100	–	2.91 µM	–	2.9 µM
Cc1c(C(=O)Nc2ccc(N3C[C@@H](C)O[C@@H](C)C3)nc2)cccc1-c1ccc(OC(F)(F)F)cc1	6.23 µM and 5.13 µM	24 µM and 24.2 µM	5.34 µM and 3.84 µM	26.5 µM and 26.1 µM	5.73 µM and 4.55 µM	28.4 µM and 34.2 µM	12.2 µM and 16.9 µM	38.8 µM and 55.8 µM	8.67 µM and 6.79 µM	> 68.6 µM and 83.7 µM	10.8 µM and 14.1 µM	29.8 µM and 44.6 µM	10.4 µM and 15.1 µM	40.7 µM and 43.9 µM	3.44 µM and 3.16 µM	> 100	3.52 µM and 8.63 µM	19 µM and 27 µM	8.6 µM and 12 µM	28 µM and 38.4 µM
